These results are taken from patent US9364479B2, “Use of a receptor-type kinase modulator for treating polycystic kidney disease” (SYMPHONY EVOLUTION, INC., priority 2010, dated 2016).

One data set deals with Adenosine, Non-selective. Description: NovaScreen assay. In kind it is binding.
Data set [1] deals with Adrenergic, Alpha 2, Non-selective. Put plainly: NovaScreen assay. In kind it is binding.
Data set [2] has as its system Nicotinic (a-bungarotoxin insensitive). Put plainly: NovaScreen assay. In kind it is binding.
The test system of a further data set is Opiate, Non-selective. Description: NovaScreen assay. In kind it is binding.
A further data set relates to Serotonin, Non-selective. Put plainly: NovaScreen assay. In kind it is binding.
For another data set, the system named is Sigma, Non-selective. Description: NovaScreen assay. In kind it is binding.
For a further data set, the target named is T1, NOS (Neuronal-Binding) (Homo sapiens, UniProt P29475).
T1 construct: NovaScreen
T1 sequence (P29475 whole entry): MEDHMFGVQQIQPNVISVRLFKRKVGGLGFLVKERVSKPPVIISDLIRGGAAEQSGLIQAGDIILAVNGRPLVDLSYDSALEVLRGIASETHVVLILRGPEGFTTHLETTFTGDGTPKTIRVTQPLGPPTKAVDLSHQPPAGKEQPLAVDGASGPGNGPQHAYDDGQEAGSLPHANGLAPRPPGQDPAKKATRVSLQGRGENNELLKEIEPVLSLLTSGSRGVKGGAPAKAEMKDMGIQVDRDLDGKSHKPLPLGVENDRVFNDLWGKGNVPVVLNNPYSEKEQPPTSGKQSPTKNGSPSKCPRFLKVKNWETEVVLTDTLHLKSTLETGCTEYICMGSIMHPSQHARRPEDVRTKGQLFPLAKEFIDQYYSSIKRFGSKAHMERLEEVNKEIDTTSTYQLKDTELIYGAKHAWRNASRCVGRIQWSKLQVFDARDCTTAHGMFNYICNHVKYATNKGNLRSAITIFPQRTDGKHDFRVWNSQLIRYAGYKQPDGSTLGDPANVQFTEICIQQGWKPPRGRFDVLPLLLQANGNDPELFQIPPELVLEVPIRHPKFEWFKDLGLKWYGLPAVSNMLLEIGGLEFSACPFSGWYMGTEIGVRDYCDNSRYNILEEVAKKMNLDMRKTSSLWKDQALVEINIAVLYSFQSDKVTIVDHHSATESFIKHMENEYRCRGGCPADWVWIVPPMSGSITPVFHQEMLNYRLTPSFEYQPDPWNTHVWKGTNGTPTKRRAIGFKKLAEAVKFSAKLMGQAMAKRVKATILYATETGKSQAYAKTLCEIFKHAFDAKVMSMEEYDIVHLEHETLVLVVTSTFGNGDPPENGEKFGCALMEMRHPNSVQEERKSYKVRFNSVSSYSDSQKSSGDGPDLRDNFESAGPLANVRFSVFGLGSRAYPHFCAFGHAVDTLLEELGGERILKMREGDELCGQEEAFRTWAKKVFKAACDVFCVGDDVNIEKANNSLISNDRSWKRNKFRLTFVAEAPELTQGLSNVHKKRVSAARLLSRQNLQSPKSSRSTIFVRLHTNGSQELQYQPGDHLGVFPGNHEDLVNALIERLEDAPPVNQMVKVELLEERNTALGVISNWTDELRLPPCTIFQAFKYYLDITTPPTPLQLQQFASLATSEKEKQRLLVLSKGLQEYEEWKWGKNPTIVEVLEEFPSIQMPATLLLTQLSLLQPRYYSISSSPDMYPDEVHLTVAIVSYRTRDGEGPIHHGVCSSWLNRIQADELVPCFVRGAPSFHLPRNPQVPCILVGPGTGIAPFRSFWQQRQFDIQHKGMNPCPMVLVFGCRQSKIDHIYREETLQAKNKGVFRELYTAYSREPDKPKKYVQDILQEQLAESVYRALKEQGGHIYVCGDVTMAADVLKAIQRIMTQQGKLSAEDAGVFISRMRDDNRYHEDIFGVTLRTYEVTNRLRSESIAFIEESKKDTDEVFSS
Description: NovaScreen assay. As to conditions: read-out: Inhibition, 10 μM XL-647.

The next data set has as its target T2, Endothelin, ET-B (Human) (Homo sapiens, UniProt P24530).
T2 construct: NovaScreen
Put plainly: NovaScreen assay. In kind it is binding. Particulars: read-out: Inhibition, 10 μM XL-647.

The target of another data set is T3, EphB4 (Homo sapiens, UniProt P54760).
T3 construct: expressed in transfected cells; host or cells: Hep3B
T3 sequence (P54760 16-987): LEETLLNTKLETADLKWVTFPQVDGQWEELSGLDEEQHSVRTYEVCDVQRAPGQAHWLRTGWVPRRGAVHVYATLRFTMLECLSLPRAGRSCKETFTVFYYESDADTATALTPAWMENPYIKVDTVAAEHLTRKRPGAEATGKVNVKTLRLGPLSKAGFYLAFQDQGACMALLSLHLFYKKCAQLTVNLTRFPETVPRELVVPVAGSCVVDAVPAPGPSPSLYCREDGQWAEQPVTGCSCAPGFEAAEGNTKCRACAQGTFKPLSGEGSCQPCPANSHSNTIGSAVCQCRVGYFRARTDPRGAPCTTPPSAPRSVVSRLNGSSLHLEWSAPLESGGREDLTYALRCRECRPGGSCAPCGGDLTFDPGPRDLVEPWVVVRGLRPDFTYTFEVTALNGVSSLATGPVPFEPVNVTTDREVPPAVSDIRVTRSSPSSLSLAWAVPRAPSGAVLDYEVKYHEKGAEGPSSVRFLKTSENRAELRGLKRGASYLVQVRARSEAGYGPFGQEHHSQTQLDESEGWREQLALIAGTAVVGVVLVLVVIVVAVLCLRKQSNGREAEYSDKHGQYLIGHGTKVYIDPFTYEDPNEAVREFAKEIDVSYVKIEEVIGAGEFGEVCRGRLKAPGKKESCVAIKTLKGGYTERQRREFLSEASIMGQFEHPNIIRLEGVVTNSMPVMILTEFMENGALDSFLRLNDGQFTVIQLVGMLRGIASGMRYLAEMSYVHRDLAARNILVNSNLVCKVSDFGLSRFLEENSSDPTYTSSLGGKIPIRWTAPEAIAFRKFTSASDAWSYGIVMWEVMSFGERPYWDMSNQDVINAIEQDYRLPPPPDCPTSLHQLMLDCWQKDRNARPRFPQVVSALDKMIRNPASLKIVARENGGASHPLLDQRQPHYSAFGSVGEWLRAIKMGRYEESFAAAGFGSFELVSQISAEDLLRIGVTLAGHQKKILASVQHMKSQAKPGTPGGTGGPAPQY
Description: EphB4 autophosphorylation ELISA, EphB4/Hep3B cells. In kind it is cell-based. Particulars: read-out: Cellular IC50, autophosphorylation. Here is the method:
The EphB4 autophosphorylation ELISA utilized EphB4/Hep3B cells. Cells were seeded at 2×10^4 cells/well onto 96-well microtiter plates (Costar 3904), in MEME (Cellgro) containing 10% FBS (Heat-Inactivated, Hyclone), 1% penicillin-streptomycin (Cellgro) and 450 μg/ml G418 (Invitrogen). The cells were then incubated at 37° C., 5% CO2 for 24 h. Growth media was replaced with serum-free MEME and cells were incubated for an additional 16 h. […] Negative control wells were not treated with growth factor. Following treatment, media was removed, the cell monolayer washed with cold PBS and immediately lysed with cold lysis buffer (50 mM Tris-HCl, pH 8.0, 200 mM NaCl, 0.5% NP-40, 0.2% sodium deoxcholate, 1 mM EDTA, 50 mM NaF, 1 mM sodium pyrophosphate, 1 mM sodium orthovanadate, 2 mM phenylmethylsulfonyl fluoride, 10 μg/ml aprotinin, 5 μg/ml leupeptin and 5 μg/ml pepstatin A). Lysates were centrifuged and incubated in blocked (1% BSA) high-binding 96-well plates (Costar 3925) coated with anti-mouse EphB4 (2.5 μg/ml, R&D Systems). Plates were then incubated with HRP-conjugated anti-phosphotyrosine cocktail (1:10,000, Zymed Laboratories, Inc) followed by the addition of a luminol-based substrate solution. Plates were read using a Victor spectrophotometer (Wallac).
On the technique in general: In an ELISA, binding on a coated surface is turned into a signal by an enzyme label.

Data set [3] relates to Calu-6 human tumor xenograft. Put plainly: Calu-6 xenograft, tumor growth. In kind it is in vivo. Particulars: Mus musculus, qd × 28. Here is the method:
(§1) The response of tumors to treatment was determined by comparing the mean tumor weight of the treatment group with the appropriate control group. Percentage inhibition of tumor growth was determined with the following formula: Percentage inhibition=100×[1−(Xf−Xo)/(Yf−Yo)], where Xf and Yf are the mean tumor weights of the treatment and control groups, respectively, on day f, and Xo and Yo are the mean tumor weights of treatment and control groups respectively, on day zero (staged tumor weights after grouping)

Data set [4] concerns H1975 human tumor xenograft. Description: H1975 xenograft, tumor growth. In kind it is in vivo. As to conditions: Mus musculus, NCI-H1975; qd × 14. On the procedure:
Before treatment, H1975, A431, or MDA-MB-231 cells were harvested from exponentially growing cultures, detached by brief trypsinization, washed twice in cold HBSS, resuspended in ice-cold HBSS, and implanted either s.c. (H1975, 3×10^6 cells per mouse) or i.d. (A431, 1×10^6 cells per mouse) into the dorsal hind flank or s.c. into the mammary fat pad (MDA-MB-231, 1×10^6 cells per mouse). Palpable tumors were measured by caliper twice weekly until the mean tumor weight was in the range of ˜80 to 120 mg. Tumor weight was determined by measuring perpendicular diameters with a caliper and multiplying the measurements of diameters in two dimensions: tumor volume (mm^3)/2=length (mm)×width (mm^2)/2. […] The mean tumor weight of each animal in the respective control and treatment groups was determined twice weekly during the dosing periods. […]
as §1

The conditions of data set [5]: mouse, in vivo, 100 mg/kg/day.
Description: Throughout the dosing period, tumor size was measured twice weekly (where applicable), and body weight was measured daily. […] Tumors were excised at the termination of some studies and examined histologically for microvascular density (CD31 staining), proliferating cells (Ki67 staining), and necrosis (hematoxylin/eosin staining).
Tolerability was monitored in these studies by daily measurement of body weight.
Another data set deals with EGFR L858R (pCMV/Lx-1) (Homo sapiens, UniProt P00533, L858R). Put plainly: EGFR phosphorylation ELISA in transfected Lx-1 cells.
In data set [6] the target is EGFR Variant III (pTet-On/Lx-1) (Homo sapiens, UniProt P00533, DELINS30-297G). The data set is described as above.
Sequence of EGFR Variant III (pTet-On/Lx-1) (P00533 with tags, fused parts or gaps DELINS30-297G): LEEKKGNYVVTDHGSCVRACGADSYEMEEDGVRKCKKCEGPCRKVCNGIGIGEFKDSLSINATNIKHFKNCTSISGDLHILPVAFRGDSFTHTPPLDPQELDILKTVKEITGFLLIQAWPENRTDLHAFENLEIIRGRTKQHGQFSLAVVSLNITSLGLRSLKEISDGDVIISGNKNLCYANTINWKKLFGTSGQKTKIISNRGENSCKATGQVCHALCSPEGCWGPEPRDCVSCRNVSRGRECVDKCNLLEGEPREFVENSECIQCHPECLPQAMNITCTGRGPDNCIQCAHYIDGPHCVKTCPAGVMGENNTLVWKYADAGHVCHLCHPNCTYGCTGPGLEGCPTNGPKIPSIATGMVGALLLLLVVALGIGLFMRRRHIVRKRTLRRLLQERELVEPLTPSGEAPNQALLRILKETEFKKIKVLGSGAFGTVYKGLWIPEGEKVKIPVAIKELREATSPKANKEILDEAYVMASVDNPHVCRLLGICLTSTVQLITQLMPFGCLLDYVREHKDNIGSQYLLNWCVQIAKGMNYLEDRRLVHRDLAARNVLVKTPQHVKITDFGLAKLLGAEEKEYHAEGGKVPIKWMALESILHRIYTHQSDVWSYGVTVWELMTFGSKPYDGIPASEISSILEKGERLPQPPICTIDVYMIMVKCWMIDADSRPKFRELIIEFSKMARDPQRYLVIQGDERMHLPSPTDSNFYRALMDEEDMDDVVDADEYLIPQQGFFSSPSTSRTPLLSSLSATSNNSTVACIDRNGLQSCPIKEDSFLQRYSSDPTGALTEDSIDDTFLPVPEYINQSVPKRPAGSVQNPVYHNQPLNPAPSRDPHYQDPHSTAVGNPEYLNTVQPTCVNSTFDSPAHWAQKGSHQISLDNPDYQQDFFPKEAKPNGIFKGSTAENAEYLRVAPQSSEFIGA
Description: (§2) Lx-1 cells were used because they lack background EGFR activity. A clone corresponding to the longest EGFR isoform (Genbank accession no. NM_005228.3/NP_005219.2 #21-176, Upstate Biotechnology) was used as a template to produce two mutant EGFR genes (coding for L858R and L861Q) by site-directed mutagenesis. The WT and the two sequence-verified mutants were transferred to a COOH-terminal Flag-tagged retroviral cytomegalovirus promoter-driven mammalian expression vector. The two Tet-On expression vectors, EGFR WT (Tet-On) and EGFRvIII (Tet-On), which were COOH-terminally Flag tagged, were generously provided by Dr. Abhijit Guha (University of Toronto, Toronto, Ontario, Canada).
(§3) Transient transfections of Lx-1 cells were done using Lipofectamine 2000 (Invitrogen) according to the manufacturer's protocol. For transfections of the WT, L858R, and L861Q constructs, 1 μg plasmid DNA was used for each transfection (each well of a 12-well plate). […]
(§4) For the EGFR phosphorylation ELISA, Reacti-Bind streptavidin-coated plates (Pierce) were coated with 2 μg/mL biotin-conjugated anti-Flag antibody (Sigma). […] Horseradish peroxidase activity was determined by reading the plates in a Victor2 plate reader following addition of the ELISA Femto substrate.
In the next data set the target is Flt-4 (Homo sapiens, UniProt P35916). Description: Flt-4 autophosphorylation ELISA, transfected COS cells. Particulars: read-out: Cellular IC50, autophosphorylation. In kind it is cell-based. Also noted: expressed in transfected cells; host or cells: COS cells. On the procedure:
The Flt-4 autophosphorylation ELISA utilized COS cells. Cells were seeded at 200,000 cells per well in 6-well plates in DMEM with 10% FBS and grown at 5% CO2 and 37° C. After 24 h growth, cells were transfected with 1 μg/well Flt-4 cDNA, using 3 μl FuGENE-6 (Roche). […] The cell monolayer was washed twice with cold PBS and harvested by scraping into 150 μl ice-cold lysis buffer. Cell lysates were centrifuged at 13,000 g for 15 min, diluted 1:10 in ice-cold PBS, and transferred to clear Streptavidin plates (Pierce) coated with anti-human […] (Flt-4) biotinylated goat IgG (2 μg/well, R&D Biosciences). After washing, anti-Flag M2 mouse IgG-HRP (Sigma 1 to 10,000 dilution) or anti phospho-tyrosine rabbit IgG-HRP (Zymed, 61-5820, 1:10,000) was used to detect total Flt-4 and phosphorylated Flt-4.

A further data set deals with ErbB2 (Homo sapiens, UniProt P04626). Description: AlphaScreen tyrosine kinase assay. Particulars: ATP at Km. Also noted: residues Q679-V1255 of human ErbB2, Proqinase; purchased Proqinase. In kind it is biochemical.

Sequence of Flt-4 (P35916 25-1363): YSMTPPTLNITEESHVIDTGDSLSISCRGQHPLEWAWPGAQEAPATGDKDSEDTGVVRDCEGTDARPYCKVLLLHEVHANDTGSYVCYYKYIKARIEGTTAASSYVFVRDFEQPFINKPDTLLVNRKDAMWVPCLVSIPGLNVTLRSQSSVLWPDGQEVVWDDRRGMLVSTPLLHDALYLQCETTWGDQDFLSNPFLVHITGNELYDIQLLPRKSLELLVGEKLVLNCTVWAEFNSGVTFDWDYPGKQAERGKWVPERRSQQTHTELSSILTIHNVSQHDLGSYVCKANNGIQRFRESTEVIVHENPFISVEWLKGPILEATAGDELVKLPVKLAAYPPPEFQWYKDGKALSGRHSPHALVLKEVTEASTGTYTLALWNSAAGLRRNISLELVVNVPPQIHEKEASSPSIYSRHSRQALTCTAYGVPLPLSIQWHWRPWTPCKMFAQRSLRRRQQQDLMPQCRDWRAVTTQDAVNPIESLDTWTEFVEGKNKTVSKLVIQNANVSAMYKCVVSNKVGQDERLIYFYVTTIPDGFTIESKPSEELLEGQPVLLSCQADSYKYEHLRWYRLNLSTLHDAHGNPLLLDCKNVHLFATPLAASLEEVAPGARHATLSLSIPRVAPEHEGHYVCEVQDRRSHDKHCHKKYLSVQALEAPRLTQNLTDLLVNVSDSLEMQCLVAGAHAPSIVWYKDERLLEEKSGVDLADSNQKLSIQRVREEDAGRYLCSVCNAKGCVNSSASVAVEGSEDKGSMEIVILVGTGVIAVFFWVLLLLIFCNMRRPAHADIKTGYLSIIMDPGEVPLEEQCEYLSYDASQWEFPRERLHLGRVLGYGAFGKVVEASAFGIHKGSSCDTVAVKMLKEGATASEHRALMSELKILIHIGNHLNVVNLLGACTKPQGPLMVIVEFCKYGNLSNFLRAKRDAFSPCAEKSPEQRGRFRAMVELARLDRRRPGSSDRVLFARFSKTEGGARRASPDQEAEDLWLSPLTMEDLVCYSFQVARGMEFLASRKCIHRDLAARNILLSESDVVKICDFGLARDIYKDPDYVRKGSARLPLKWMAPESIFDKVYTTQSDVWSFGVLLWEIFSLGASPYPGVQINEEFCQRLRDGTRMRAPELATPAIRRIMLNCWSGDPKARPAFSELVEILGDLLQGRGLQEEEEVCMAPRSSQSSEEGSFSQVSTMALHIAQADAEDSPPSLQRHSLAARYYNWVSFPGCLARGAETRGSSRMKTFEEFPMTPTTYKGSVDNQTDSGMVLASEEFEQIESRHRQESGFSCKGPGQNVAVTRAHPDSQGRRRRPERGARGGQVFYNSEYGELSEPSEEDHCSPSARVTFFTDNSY
T2 sequence (P24530 27-442): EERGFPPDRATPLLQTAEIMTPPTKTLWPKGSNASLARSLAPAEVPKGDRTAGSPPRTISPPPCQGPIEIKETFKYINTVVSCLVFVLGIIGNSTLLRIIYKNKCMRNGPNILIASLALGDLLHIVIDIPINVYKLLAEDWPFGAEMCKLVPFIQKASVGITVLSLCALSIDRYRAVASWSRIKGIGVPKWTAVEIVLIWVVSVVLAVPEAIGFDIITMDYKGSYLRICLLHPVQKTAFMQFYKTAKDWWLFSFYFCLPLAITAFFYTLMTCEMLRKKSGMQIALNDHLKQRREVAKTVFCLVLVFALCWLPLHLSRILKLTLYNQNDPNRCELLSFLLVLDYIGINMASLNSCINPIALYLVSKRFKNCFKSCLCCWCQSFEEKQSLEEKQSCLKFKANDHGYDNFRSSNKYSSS
Description for EGFR L858R (pCMV/Lx-1): as §2, §3, §4
Description for ErbB2: Dose-response experiments were done using 10 different inhibitor concentrations in 384-well microtiter plates. The ATP concentration used for each assay was equivalent to the Km for each kinase.
An AlphaScreen tyrosine kinase assay was used to measure ErbB2 and Flt-4 activity. Donor beads coated with streptavidin and acceptor beads coated with PY100 anti-phosphotyrosine antibody (Perkin-Elmer) were used. Biotinylated poly(Glu,Tyr) 4:1 was used as the substrate. Substrate phosphorylation was measured by luminescence following donor-acceptor bead addition followed by complex formation. Test compound, 3 μmol/L ATP, 3 nmol/L biotinylated poly(Glu,Tyr) 4:1, and 1 nmol/L ErbB2 (residues Q679-V1255 of human ErbB2, Proqinase) or Flt-4 (residues D725-R1298 of human Flt-4, Proqinase) were combined in a volume of 20 μL Assay Buffer (20 mM TrisHCl, pH 7.5, 10 mM MgCl2, 3 mM MnCl2, 1 mM DTT, 0.01% Triton) in a 384-well white, medium-binding microtiter plate (Greiner). Reaction mixtures were incubated for 1 h at room temperature. Reactions were quenched by addition of 10 μL of 15 to 30 μg/mL AlphaScreen bead suspension containing 75 mmol/L HEPES (pH 7.4), 300 mmol/L NaCl, 120 mmol/L EDTA, 0.3% bovine serum albumin, and 0.03% Tween 20. After 2 to 16 h of incubation at room temperature, plates were read using an AlphaQuest reader (Perkin-Elmer).

As to `COc1cc2c(Nc3ccc(Cl)c(Cl)c3F)ncnc2cc1OC[C@@H]1C[C@@H]2CN(C)C[C@@H]2C1` [XL-647, N-(3,4-dichloro-2-fluorophenyl)-7-({[(3aR,5r,6aS)-2-methyloctahydrocyclopenta[c]pyrrol-5-yl]methyl}oxy)-6-(methyloxy)quinazolin-4-amine], the “Inhibition, 10 μM XL-647” value is 47.89% in the data set with Adenosine, Non-selective; 84.56% in data set [1] (10 μM); 53.97% in data set [2]; 39.73% in the data set on Opiate, Non-selective; 24.52% with Serotonin, Non-selective; 50.90% in the data set with Sigma, Non-selective. The half-maximal inhibitory concentration (IC50) in data set [1] was found to be 1800 nM; on EphB4, 3 nM; against EGFR L858R (pCMV/Lx-1), 5 nM; in [6], 74 nM; on Flt-4, 90 nM; at ErbB2, 16 ± 3 nM. Moreover, the inhibition at 10 µM at NOS (Neuronal-Binding) was 16.8%; on Endothelin, ET-B (Human), -13.6%. Moreover, the ED50 in data set [3] came to 16.4 mg/kg; in data set [4], 17 mg/kg. The “tolerability, in words” value in data set [5] is “generally well-tolerated in mice without substantial body weight loss”.

As a reminder, the IC50 is the concentration that inhibits the measured activity by half. One may read the inhibition as the relative decrease from the control value, in per cent. For orientation: ED50 means the dose that gives a 50% effect, or the effect in half of the subjects. The low end stands for greater potency, the high end for weaker potency.
